Assay results as given in patent US11925624B2, “Methods of administering anti-fibrotic therapy” (GENENTECH, INC., priority 2016, dated 2024).
Several values for one entry are separate records, joined by “and”; a condition that tells them apart may be missing. Identical values can stand only once. Like-named read-outs stand apart in the source and are kept apart here.

Test: Phase 1 multiple ascending dose (Part B) pharmacokinetics after low-fat meal
Format: in vivo, human
Details: for Tmax: median; for AUC: read-out: AUC0-τ; for CL renal: urine and plasma
Procedure: In Part B, 24 subjects were studied in 3 groups (Groups B1 to B3), with each group consisting of 8 subjects (6 received Compound I and 2 received placebo). The dose, dosing frequency, duration, and dietary state for Part B were determined based on review of available PK, safety, and tolerability data from Parts A and B.
All doses in Part B were administered following administration of a low-fat meal. In Groups B1 and B3, Compound I (200 mg for Group B1, 275 mg for Group B3) or placebo was administered twice daily (BID) on Days 1 to 6 and once on the morning of Day 7. In Group B2, subjects received QD dosing with 525 mg Compound I or placebo on Days 1 to 7.
In Part B, each subject participated in 1 treatment period. Subjects resided at the CRU from Day −1 (the day before dosing) until the morning of Day 10 (72 hours after the final dose on Day 7). All subjects returned for a Follow-up visit between 5 to 14 days after their final dose.
In Part B, all doses were administered after a low-fat meal. On Day 1 and Day 7 (days with post-dose PK sampling), subjects started a low-fat breakfast 30 minutes prior to dosing and were given 15 minutes to complete their meal; dosing occurred approximately 15 minutes after completion of breakfast. On dosing Days 2 through 6, subjects were to complete their breakfast within an hour prior to dosing. For the evening doses, subjects were given a standard meal and completed their meal between 1 and 2 hours prior to dosing.

[1] = 200 mg BID (B1), Day 1, low-fat meal
[2] = 200 mg BID (B1), Day 7, low-fat meal
[3] = 275 mg BID (B3), Day 1, low-fat meal
[4] = 275 mg BID (B3), Day 7, low-fat meal
[5] = 525 mg QD (B2), Day 1, low-fat meal
[6] = 525 mg QD (B2), Day 7, low-fat meal
[7] = human, plasma, oral, 200 mg, 200 mg BID (B1), Day 1, low-fat meal
[8] = human, plasma, oral, 200 mg, 200 mg BID (B1), Day 7, low-fat meal
[9] = human, plasma, oral, 275 mg, 275 mg BID (B3), Day 1, low-fat meal
[10] = human, plasma, oral, 275 mg, 275 mg BID (B3), Day 7, low-fat meal
[11] = human, plasma, oral, 525 mg, 525 mg QD (B2), Day 1, low-fat meal
[12] = human, plasma, oral, 525 mg, 525 mg QD (B2), Day 7, low-fat meal
[13] = human, plasma, oral, 200 mg BID (B1), Day 7, low-fat meal
[14] = human, plasma, oral, 275 mg BID (B3), Day 7, low-fat meal
[15] = human, plasma, oral, 525 mg QD (B2), Day 7, low-fat meal

AUC0-τ(norm) [1]: 11300 hr*ng/mL/(mg/kg) | Ae0-12 [1]: 105 mg | Cmax (norm) [1]: 1970 ng/mL/(mg/kg) | fe0-12 [1]: 52.5% | AUC0-τ(norm) [2]: 12600 hr*ng/mL/(mg/kg) | Ae0-12 [2]: 142 mg | CL/F [2]: 85.9 mL/min | CL/F(norm) [2]: 1.32 (mL/min)/kg | Cmax (norm) [2]: 1970 ng/mL/(mg/kg) | RAAUC (accumulation ratio based on AUC0-τ) [2]: 1.1 and 1.11 | fe0-12 [2]: 71.2% | λZ [2]: 0.142 h⁻¹ | Mean pre-dose (trough) Compound I concentration (200 mg BID, Day 7): 1680 ng/mL | AUC0-τ(norm) [3]: 9560 hr*ng/mL/(mg/kg) | Ae0-12 [3]: 162 mg | Cmax (norm) [3]: 1540 ng/mL/(mg/kg) | fe0-12 [3]: 58.9% | AUC0-τ(norm) [4]: 14300 hr*ng/mL/(mg/kg) | Ae0-12 [4]: 190 mg | CL/F [4]: 81.1 mL/min | CL/F(norm) [4]: 1.16 (mL/min)/kg | Cmax (norm) [4]: 1900 ng/mL/(mg/kg) | RAAUC (accumulation ratio based on AUC0-τ) [4]: 1.5 | fe0-12 [4]: 69.1% | λZ [4]: 0.123 h⁻¹ | Fold increase in geometric mean Cmax (275 mg BID vs 200 mg BID (1.4-fold increase in dose)): 1.2 fold | Mean pre-dose (trough) Compound I concentration (275 mg BID, Day 7): 3260 ng/mL | AUC0-τ(norm) [5]: 10500 hr*ng/mL/(mg/kg) | Ae0-12 [5]: 171 mg | Ae0-24 [5]: 242 mg | Cmax (norm) [5]: 1140 ng/mL/(mg/kg) | fe0-12 [5]: 32.6% | fe0-24 [5]: 46.1% | AUC0-τ(norm) [6]: 13100 hr*ng/mL/(mg/kg) | Ae0-12 [6]: 185 mg | Ae0-24 [6]: 284 mg | CL/F [6]: 89.4 mL/min | CL/F(norm) [6]: 1.27 (mL/min)/kg | Cmax (norm) [6]: 1260 ng/mL/(mg/kg) | RAAUC (accumulation ratio based on AUC0-τ) [6]: 1.3 and 1.25 | fe0-12 [6]: 35.3% | fe0-24 [6]: 54.0% | λZ [6]: 0.0544 h⁻¹ | Fold increase in geometric mean AUC0-∞ (525 mg QD vs 200 mg BID (2.6-fold increase in dose)): 2.5 fold | Mean pre-dose (trough) Compound I concentration (525 mg QD, Day 7): 897 ng/mL | Time to steady-state plasma concentrations (200 and 275 mg BID and 525 mg QD): ≤ 2 days | Tmax at 1 day (human, plasma, oral, 200 mg BID, 275 mg BID, 525 mg QD, Day 1, read-out: Median tmax, range across regimens): 2.3 to 3.5 h | Tmax at 7 day (human, plasma, oral, 200 mg BID, 275 mg BID, 525 mg QD, Day 7, read-out: Median tmax, range across regimens): 2.8 to 4 h | Cmax [7]: 6080 ng/mL | Tmax [7]: 3 h | AUC [7]: 34900 ng·h/mL | Cmax [8]: 6060 ng/mL | Tmax [8]: 4 h | AUC [8]: 38800 ng·h/mL | Cmax [9]: 6070 ng/mL | Tmax [9]: 2.28 h | AUC [9]: 37700 ng·h/mL | Cmax [10]: 7500 ng/mL | Tmax [10]: 2.75 h | AUC [10]: 56500 ng·h/mL | Cmax [11]: 8510 ng/mL | Tmax [11]: 3.5 h | AUC [11]: 78100 ng·h/mL | Cmax [12]: 9440 ng/mL | Tmax [12]: 3.53 h | AUC [12]: 97800 ng·h/mL | half-life [13]: 4.89 h | half-life at 7 day [13]: 4.9 h | Vd/F (human, plasma, oral, 200 mg BID (B1), Day 7, low-fat meal, read-out: Vz/F): 36.1 L | Vd/F (human, plasma, oral, 200 mg BID (B1), Day 7, low-fat meal, read-out: Vz/F(norm)): 0.576 L/kg | half-life [14]: 5.64 h | half-life at 7 day [14]: 5.6 h | Vd/F (human, plasma, oral, 275 mg BID (B3), Day 7, low-fat meal, read-out: Vz/F): 39.6 L | Vd/F (human, plasma, oral, 275 mg BID (B3), Day 7, low-fat meal, read-out: Vz/F(norm)): 0.568 L/kg | half-life [15]: 6.25 h | half-life at 7 day [15]: 6.3 h | Vd/F (human, plasma, oral, 525 mg QD (B2), Day 7, low-fat meal, read-out: Vz/F): 98.6 L | Vd/F (human, plasma, oral, 525 mg QD (B2), Day 7, low-fat meal, read-out: Vz/F(norm)): 1.4 L/kg | CL renal (human, oral, 200 mg, 200 mg BID (B1), Day 1, low-fat meal): 50.2 mL/min | CL renal (human, oral, 200 mg, 200 mg BID (B1), Day 7, low-fat meal): 61.2 mL/min | CL renal (human, oral, 275 mg, 275 mg BID (B3), Day 1, low-fat meal): 71.6 mL/min | CL renal (human, oral, 275 mg, 275 mg BID (B3), Day 7, low-fat meal): 56.1 mL/min | CL renal (human, oral, 525 mg, 525 mg QD (B2), Day 1, low-fat meal): 51.7 mL/min | CL renal (human, oral, 525 mg, 525 mg QD (B2), Day 7, low-fat meal): 48.3 mL/min
SMILES: Cn1cc(-c2cn(-c3ccc(OC(F)(F)F)cc3)c(=O)c3ncn(C)c23)cn1 [Compound I]
